{"source": "patent US20130130306A1", "about": "“ZN (II) BASED COLORIMETRIC SENSOR AND PROCESS FOR THE PREPARATION THEREOF” (COUNCIL OF SCIENTIFIC & INDUSTRIAL RESEARCH, priority 2010, published 2013)", "origin": "cited, not measured here", "tested_on": "living microbes (eukaryotes and prokaryotes)", "conditions": "drug carrier, general knowledge; cited from earlier work", "data": [{"smiles": "OC[C@H]1O[C@@H]2O[C@H]3[C@H](O)[C@@H](O)[C@@H](O[C@H]4[C@H](O)[C@@H](O)[C@@H](O[C@H]5[C@H](O)[C@@H](O)[C@@H](O[C@H]6[C@H](O)[C@@H](O)[C@@H](O[C@H]7[C@H](O)[C@@H](O)[C@@H](O[C@H]1[C@H](O)[C@H]2O)O[C@@H]7CO)O[C@@H]6CO)O[C@@H]5CO)O[C@@H]4CO)O[C@@H]3CO", "note": "[α-CD, α-cyclodextrin]", "values": [{"measurement": "toxicity to the living cell (known)", "result": "completely non-toxic"}]}]}
